These results are taken from article PMC10474154, “Pro-arrhythmic effect of escitalopram and citalopram at serum concentrations commonly observed in older patients – a study based on a cohort of 19,742 patients” (eBioMedicine, 2023).

The conditions of data set [1]: older patients (mean age 76), Canadian study; cited from earlier work.
For data set [2] the following is noted: cited from earlier work.
Data set [3] is described as follows: Therapeutic drug monitoring (TDM) serum concentrations in patients. The conditions noted are these: for Serum concentration, 10% percentile / Serum concentration, 25% percentile / Serum concentration, 50% percentile / Serum concentration, 75% percentile / Serum concentration, 90% percentile / Serum concentration, maximum / Serum concentration, minimum: trough; for Serum concentration, mean: trough (10-28 h after dose).
Source text: Information regarding age, sex, daily dose and time between last dose and blood sampling was also collected from the database. For patients with multiple TDM measurements, only the last measurement was included. Included patients were divided into four subgroups based on age: (a) < 18, (b) 18–64, (c) 65–80, and (d) > 80 years.
Measured serum concentrations represent total concentrations, i.e. the sum of bound and unbound drug.
All patients were included unless they met the exclusion criteria. Exclusion criteria were: (a) serum concentration of citalopram, escitalopram and/or demethylcitalopram outside the limits of quantification (LOQ), (b) blood sampling not performed at trough levels, outside the time interval of 10–28 h after last dose intake, (c) prescribed dose of citalopram or escitalopram less/more than 2.5–80 mg or 2.5–60 mg, respectively, and (d) detection of interacting drugs in the citalopram/escitalopram serum sample. In detail, we screened the samples for CYP2C19 inducers carbamazepine, phenobarbital and phenytoin and the CYP2C19 or –2D6 inhibitors bupropion, fluoxetine, fluvoxamine, paroxetine or levomepromazine.
Differences in absolute serum concentrations of citalopram, escitalopram and metabolites as well as differences in time between last blood sampling and daily dose was investigated across the age subgroups using Kruskal Wallis test followed by Dunn's test. P-values were Bonferroni corrected by multiplying the P-value by the number of statistical analyses that were performed.

Data set [4] deals with human induced pluripotent stem cell-derived cardiomyocytes (hiPSC-CM). The data set can be described thus: Action potential recordings in hiPSC-CM with voltage sensitive dye (FluoVolt, CellOPTIQ). To be noted: hiPSC-CM. The class given is cell-based. As to the method:
Cryopreserved human induced pluripotent stem cell-derived cardiomyocytes (hiPSC-CM): CDI iCell cardiomycytes^2 01434 CardioTox Kit (Catalog #: R1222, FujiFilm CDI, Madison, WI) were kept in liquid nitrogen until culture according to instructions by the manufacturer. […] All studies were conducted at Clyde Biosciences (Glasgow, Scotland). Cells were cultured in 96-well glass-bottomed plates (MatTek, Ashland, Massachusetts) coated with fibronectin ([…] in PBS supplemented with Ca2+ and Mg2+) (Sigma, St. Louis, Missouri) in a humidified incubator at 37 °C for 3 h. The cell density was 50,000 cells/cm2 (25,000 cells/well). The subsequent maintenance protocols followed manufacturer's instructions using their maintenance medial (FujiFilm CDI Cardiomyocytes Maintenance Media). Experiments were performed between days 4–8. Prior to beginning an experiment, cells were washed in serum-free media (SF media), specifically DMEM (Gibco, ThermoFisher Scientific, UK) supplemented with 10 mM galactose and 10 mM sodium pyruvate.
hiPSC-CM were loaded with 5 μM FluoVolt (ThermoFisher) and the multiwell plate was placed in the CellOPTIQ platform (at Clyde Biosciences Ltd, Glasgow, Scotland). The FluoVolt fluorescence signal was recorded using a 40 × (NA 0.6) objective lens. Excitation wavelength was 480 ± 10 nm, and emitted light was collected by a photomultiplier (PMT) at 510–560 nm. Drugs were supplied by Santa Cruz Biotechnology (Germany) and Toronto Research Chemicals (Canada). Their identity and concentration were blinded from the laboratory personnel. […] 30 min after exposure to the tested drug or vehicle a 20 s recording was taken. Offline analysis was performed using proprietary software (CellOPTIQ®). The following (averaged) parameters were obtained from the AP recordings of 4 independent replicates: cycle length (CL, […]); rise time (Trise, ms) between 10 and 90% of the AP amplitude, and AP durations (APD, ms) from 10% to 90% repolarization at 10% intervals. In this study rate-correction was based on previous studies.[14]
Drugs were tested at 3 concentrations with matched vehicle controls for each concentration. The chosen escitalopram (S-citalopram) concentration was 60 nM. Assuming no protein binding in the in vitro model, this corresponds to a total serum concentration of 136 nM, as escitalopram protein binding is reported at 55–56% (most commonly 56%, which is used in the present study).[15], [16], [17] […] This could vary with age and clinical conditions.[20] […] In a large therapeutic drug monitoring (TDM) study 60 nM was the average total concentration in patients with normal escitalopram metabolism through CYP2C19, and 136 nM was below the average total concentration in poor metabolizers.[7] After administration of racemic citalopram, R-citalopram is reported to be 3 times higher than S-citalopram in a publication by Ji et al.[22] The typical concentration of R-citalopram as well as the S-/R-demethylcitalopram and S-/R-didemethylcitalopram metabolites, were calculated according to ratios from their paper.[22]
Shapiro Wilk tests were used to determine whether the data in this study were normally distributed based on a least-squares fit to a normal function, while Brown–Forsythe test was used to verify homogeneity of variance (Origin version 9, OriginLab Corp., Northampton, Massachusetts). […] Statistical tests were made using a paired t-tests for differences between absolute values, with P-values adjusted for multiple comparisons using the Benjamini-Hochberg procedure (one-way ANOVA). The relationship between AP duration at 90% of repolarization (APD90) and CL or diastolic interval was fit to single or double exponential functions (Origin version 9).

Entries after “also recorded” stand apart in the source; their conditions may differ.

Regarding `CN(C)CCCC1(c2ccc(F)cc2)OCc2cc(C#N)ccc21` (stereo not drawn) [Citalopram, citalopram], the “Relative risk for hospitalization due to ventricular arrhythmia” value in data set [1] is recorded as 1.53. For the same compound, in data set [2], the “Time of maximum concentration after intake (Tmax)” value was 3 to 4 h. For the same compound, in data set [3] (citalopram users), the “Serum concentration, 10% percentile” value was found to be 48 nM; the “Serum concentration, 25% percentile” value turned out to be 84 nM; the “Serum concentration, 50% percentile” value was 133 nM; the “Serum concentration, 75% percentile” value came out at 211 nM. In data set [3] (citalopram users), the “Serum concentration, 90% percentile” value was 314 nM; the “Serum concentration, maximum” value came to 733 nM; the “Serum concentration, minimum” value was 7 nM; the “Serum concentration, mean” value worked out at 163 nM.
For the compound `CNCCC[C@@]1(c2ccc(F)cc2)OCc2cc(C#N)ccc21` [S-demethylcitalopram], in data set [4], the “Concentration dependence of triangulation” value is “dose-dependent increase”. For the same compound, the “% Change of cycle length from baseline” value in data set [4] (10x clinical concentration) is given as -3.81±3.22 %. In data set [4] (100x clinical concentration), the “% Change of cycle length from baseline” value is listed as -7.22±2.14 %. Besides, in data set [4] (30 min exposure), the “Concentration that increased late repolarisation (APD90)” value came out at 1500 nM, the “Concentration that increased triangulation (APD90-APD30) of the action potential” value is 150 nM and the “Concentration that reduced early repolarisation (APD30)” value stood at 1500 nM. In addition, the “Effect on cycle length” value in data set [4] (all tested concentrations) is “limited shortening”. For the same compound, the “% Change of cycle length from baseline” value in data set [4] (clinical concentration) is reported as -4.33±3.45 %.
Take `CNCCCC1(c2ccc(F)cc2)OCc2cc(C#N)ccc21` (stereo not drawn) [Demethylcitalopram, demethylcitalopram]: in data set [3] (citalopram users), the “Serum concentration, 10% percentile” value came out at 23 nM; the “Serum concentration, 25% percentile” value stood at 35 nM; the “Serum concentration, 50% percentile” value stood at 55 nM; the “Serum concentration, 75% percentile” value is 87 nM. Further, in data set [3] (citalopram users), the “Serum concentration, 90% percentile” value amounted to 130 nM; the “Serum concentration, maximum” value was 395 nM; the “Serum concentration, minimum” value came out at 5 nM; the “Serum concentration, mean” value was found to be 68 nM. In data set [3] (escitalopram users), the “Serum concentration, 10% percentile” value was 13 nM; the “Serum concentration, 25% percentile” value was found to be 18 nM; the “Serum concentration, 50% percentile” value turned out to be 26 nM; the “Serum concentration, 75% percentile” value stood at 37 nM. In data set [3] (escitalopram users), the “Serum concentration, 90% percentile” value came to 51 nM; the “Serum concentration, maximum” value was found to be 329 nM; the “Serum concentration, minimum” value was found to be 5 nM; the “Serum concentration, mean” value worked out at 30 nM.
On to `N#Cc1ccc2c(c1)CO[C@]2(CCCN)c1ccc(F)cc1` [R-didemethylcitalopram], for which the “Cardiotoxic at therapeutic concentrations” value in data set [4] was “did not find indications”. The results for the “% Change of cycle length from baseline” value in data set [4] (10x clinical concentration), in data set [4] (100x clinical concentration) and in data set [4] (clinical concentration) were -1.09±3.49%, -1.67±2.65% and -1.40±5.04%, respectively. The “Concentration that increased early repolarisation (APD30)” value in data set [4] (30 min exposure) is 60 nM. Besides, the “Concentration that reduced triangulation (APD90-APD30)” value in data set [4] (30 min exposure) turned out to be 6 nM. Besides, in data set [4] (all tested concentrations), the “Effect on cycle length” value is “not affected”.
`CN(C)CCC[C@]1(c2ccc(F)cc2)OCc2cc(C#N)ccc21` [R-citalopram]: the Triangulation effect entry in data set [4] (10 times typical concentrations) is “substantial increase”. Further, the “% Change of cycle length from baseline” value is on record as -1.96±5.39% in data set [4] (10x clinical concentration), “Quiescent” in data set [4] (100x clinical concentration) and 0.99±7.43% in data set [4] (clinical concentration). Also, in data set [4] (30 min exposure), the “Concentration that increased triangulation (APD90-APD30) of the action potential” value was 180 nM. In addition, the “Concentration that reduced medium repolarisation (APD50)” value in data set [4] (30 min exposure) is listed as 1800 nM. Moreover, the “Effect on cycle length” value in data set [4] (all tested concentrations) is on record as “not affected”. Also, the “Electrical activity of the cells” value in data set [4] (highest concentrations (100 times typical)) was “electrically quiescent”. The “Depolarisation (phase 0) measured by TRise” value in data set [4] (increasing concentrations) is “No changes; also recorded: No significant increase”. Further, in data set [4] (intermediate concentrations), the “Early and medium repolarisation (APD30 and APD50)” value is reported as “shortening”. Further, in data set [4] (low concentrations), the “Triangulation (APD90-APD30) effect” value is “significantly increased”. In data set [4] (lowest tested concentrations), the Late repolarisation entry is “prolonged”. In addition, in data set [2], the “Concentration relative to S-citalopram after administration of racemic citalopram” value is on record as 3 times.
With `CNCCC[C@]1(c2ccc(F)cc2)OCc2cc(C#N)ccc21` [R-demethylcitalopram], the “Concentration dependence of triangulation” value in data set [4] is on record as “dose-dependent increase”. Further, in data set [4] (2000 nM), the “Effect on late repolarisation (APD90)” value was “not late repolarisation”. Also, the figures for the “% Change of cycle length from baseline” value in data set [4] (10x clinical concentration), in data set [4] (100x clinical concentration) and in data set [4] (clinical concentration) were -9.34±2.21 %, -8.55±6.93 % and -6.45±4.32 %, respectively. The “Concentration that increased triangulation (APD90-APD30) of the action potential” value in data set [4] (30 min exposure) is given as 2000 nM. For the same compound, the “Concentration that reduced early repolarisation (APD30)” value in data set [4] (30 min exposure) turned out to be 2000 nM. Moreover, the “Effect on cycle length” value in data set [4] (all tested concentrations) was “limited shortening”.
On to `N#Cc1ccc2c(c1)CO[C@@]2(CCCN)c1ccc(F)cc1` [S-didemethylcitalopram], for which the “Cardiotoxic at therapeutic concentrations” value in data set [4] is reported as “did not find indications”. Moreover, in data set [4] (10x clinical concentration), the “% Change of cycle length from baseline” value is 9.89±8.49%. Moreover, the “% Change of cycle length from baseline” value in data set [4] (100x clinical concentration) stood at 0.09±7.78%. In addition, in data set [4] (30 min exposure), the “Concentration that increased early repolarisation (APD30)” value was determined as 15 nM, the “Concentration that increased late repolarisation (APD90)” value is on record as 15 nM and the “Concentration that increased medium repolarisation (APD50)” value is given as 15 nM. Also, in data set [4] (all tested concentrations), the “Concentrations with significant effect on triangulation (APD90-APD30)” value is given as “No tested concentrations” and the “Effect on cycle length” value is “not affected”. Besides, the “Effects on medium to late repolarisation” value in data set [4] (at concentrations higher than 15 nM) was “not present”. Besides, the “% Change of cycle length from baseline” value in data set [4] (clinical concentration) was found to be 1.42±3.67%.
